The text below walks through data of patent US20250064941A1, “SIGLEC LIGANDS, CONJUGATES, AND METHODS OF USE THEREOF” (Osprey Biopharmaceuticals, Inc., priority 2023, published 2025).

The target in experiment [1] is T1, human Siglec-2/CD22 protein (Homo sapiens, UniProt P20273).
T1 construct: purchased Acro Biosystems SI2-H82E3
T1 sequence (P20273 20-847): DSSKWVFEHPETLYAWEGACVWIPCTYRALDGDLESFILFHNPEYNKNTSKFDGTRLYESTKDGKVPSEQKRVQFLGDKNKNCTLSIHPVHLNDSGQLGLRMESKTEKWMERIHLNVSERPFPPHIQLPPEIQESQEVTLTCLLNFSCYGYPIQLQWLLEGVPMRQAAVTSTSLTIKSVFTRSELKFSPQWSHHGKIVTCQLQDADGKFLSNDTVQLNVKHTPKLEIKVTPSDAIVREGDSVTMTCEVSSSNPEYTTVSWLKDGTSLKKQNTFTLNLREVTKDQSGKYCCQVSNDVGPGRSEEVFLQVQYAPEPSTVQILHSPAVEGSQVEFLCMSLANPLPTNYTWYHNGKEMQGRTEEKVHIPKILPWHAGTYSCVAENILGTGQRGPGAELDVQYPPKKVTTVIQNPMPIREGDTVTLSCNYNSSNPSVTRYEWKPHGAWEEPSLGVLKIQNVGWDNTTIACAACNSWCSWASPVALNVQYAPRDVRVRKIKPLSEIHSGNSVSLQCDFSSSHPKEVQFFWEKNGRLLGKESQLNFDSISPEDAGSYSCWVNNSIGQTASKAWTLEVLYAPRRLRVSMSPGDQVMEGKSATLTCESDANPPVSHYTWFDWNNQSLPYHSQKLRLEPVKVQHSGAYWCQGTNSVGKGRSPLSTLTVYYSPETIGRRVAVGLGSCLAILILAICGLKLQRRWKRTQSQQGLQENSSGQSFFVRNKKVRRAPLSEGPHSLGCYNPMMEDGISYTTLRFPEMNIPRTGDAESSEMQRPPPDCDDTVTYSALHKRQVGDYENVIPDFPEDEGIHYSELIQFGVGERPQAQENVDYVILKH
Description: SPR binding affinity to human CD22. Conditions: steady-state analysis. The method in brief:
(§1)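 Using a Biacore 8K, compounds were tested against biotinylated CD22 captured after sialidase treatment. The running buffer held 1% DMSO, corrected with a 0.5–2% DMSO series. Affinity was derived by steady-state analysis.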
A general note: Surface plasmon resonance follows binding to a sensor surface in real time, without labels.

Experiment [2] concerns the target T2, mouse Siglec-2-Fc-Avi (CD22) (Mus musculus, UniProt P35329).
T2 construct: made in house
T2 sequence (P35329 22-708 limits assumed): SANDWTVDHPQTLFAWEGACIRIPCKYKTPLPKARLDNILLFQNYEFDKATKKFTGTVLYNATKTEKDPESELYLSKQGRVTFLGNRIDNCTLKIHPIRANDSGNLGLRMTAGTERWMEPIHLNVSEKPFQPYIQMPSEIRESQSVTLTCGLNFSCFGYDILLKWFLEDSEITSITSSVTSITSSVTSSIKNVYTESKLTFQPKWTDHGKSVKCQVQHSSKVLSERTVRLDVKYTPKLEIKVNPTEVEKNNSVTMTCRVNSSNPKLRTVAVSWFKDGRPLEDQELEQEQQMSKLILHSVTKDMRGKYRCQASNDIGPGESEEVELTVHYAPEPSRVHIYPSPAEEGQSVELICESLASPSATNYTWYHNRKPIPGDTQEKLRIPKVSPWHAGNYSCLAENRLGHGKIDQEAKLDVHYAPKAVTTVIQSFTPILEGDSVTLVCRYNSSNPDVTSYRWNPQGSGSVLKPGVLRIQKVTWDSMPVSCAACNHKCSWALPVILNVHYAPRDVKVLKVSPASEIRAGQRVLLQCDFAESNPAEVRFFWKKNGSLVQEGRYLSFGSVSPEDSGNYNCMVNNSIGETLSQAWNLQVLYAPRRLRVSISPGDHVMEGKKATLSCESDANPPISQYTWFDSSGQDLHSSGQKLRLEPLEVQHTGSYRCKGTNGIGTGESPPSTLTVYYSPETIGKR
In words: SPR binding affinity to mouse CD22. Conditions: steady-state analysis. Summed up: as §1

Another experiment has as its target cynomolgus Siglec-2/CD22 (Macaca fascicularis, UniProt A0A2K5WCZ6). In words: biochemical. The experiment is classed as binding. Particulars: SPR, steady-state analysis; read-out: Affinity cyno CD22. Summed up: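 Compound binding measured by steady-state SPR analysis, 120 s dissociation, in HEPES-NaCl-Tween buffer pH 7.5 containing 1% DMSO, DMSO solvent-corrected. Surface: cyno CD22, sialic acids first stripped by SialoExo for 4 h at 37° C., then amine-coupled onto CM5.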

Some results are limits rather than exact numbers.

Chain of cynomolgus Siglec-2/CD22 (A0A2K5WCZ6 entry or part of it): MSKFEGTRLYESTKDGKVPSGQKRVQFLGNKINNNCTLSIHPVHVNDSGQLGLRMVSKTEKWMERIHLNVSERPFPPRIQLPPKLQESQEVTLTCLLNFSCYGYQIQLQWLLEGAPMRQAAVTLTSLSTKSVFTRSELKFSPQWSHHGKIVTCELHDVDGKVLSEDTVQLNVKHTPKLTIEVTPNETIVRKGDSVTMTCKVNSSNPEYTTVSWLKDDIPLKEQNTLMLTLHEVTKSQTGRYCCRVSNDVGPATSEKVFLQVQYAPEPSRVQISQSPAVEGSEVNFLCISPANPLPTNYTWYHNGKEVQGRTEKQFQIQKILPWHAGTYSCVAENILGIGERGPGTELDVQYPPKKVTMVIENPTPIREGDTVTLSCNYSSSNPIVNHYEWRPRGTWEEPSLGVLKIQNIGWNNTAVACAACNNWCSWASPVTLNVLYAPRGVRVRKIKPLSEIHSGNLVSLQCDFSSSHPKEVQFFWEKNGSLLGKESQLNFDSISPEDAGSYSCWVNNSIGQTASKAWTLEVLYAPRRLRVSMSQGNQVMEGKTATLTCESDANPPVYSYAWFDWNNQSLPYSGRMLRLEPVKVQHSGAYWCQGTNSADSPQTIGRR

For `C#CCNc1c(NCCCCCCO[C@]2(C(=O)O)C[C@H](O)[C@@H](NC(=O)CO)[C@H]([C@H](O)[C@H](O)CNC(=O)Cc3ccc(C(F)F)cc3)O2)c(=O)c1=O` [Compound 220, (2R,4S,5R,6R)-6-((1R,2R)-3-(2-(4-(difluoromethyl)phenyl)acetamido)-1,2-dihydroxypropyl)-2-((6-((3,4-dioxo-2-(prop-2-yn-1-ylamino)cyclobut-1-en-1-yl)amino)hexyl)oxy)-4-hydroxy-5-(2-hydroxyacetamido)tetrahydro-2H-pyran-2-carboxylic acid], the Kd (in experiment [1]; in experiment [2]; at cynomolgus Siglec-2/CD22) was less than 1000 nM each time.

As to `C#CCNc1c(NCCCCCCO[C@]2(C(=O)O)C[C@H](O)[C@@H](NC(=O)CO)[C@H]([C@H](O)[C@H](O)CNC(=O)Cc3ccc(-c4ccccc4)cc3)O2)c(=O)c1=O` [Compound 221, (2R,4S,5R,6R)-6-((1R,2R)-3-(2-([1,1′-biphenyl]-4-yl)acetamido)-1,2-dihydroxypropyl)-2-((6-((3,4-dioxo-2-(prop-2-yn-1-ylamino)cyclobut-1-en-1-yl)amino)hexyl)oxy)-4-hydroxy-5-(2-hydroxyacetamido)tetrahydro-2H-pyran-2-carboxylic acid], the Kd (in experiment [1]; in experiment [2]; at cynomolgus Siglec-2/CD22) was less than 1000 nM each time.

With `CCCNC(=O)CCOCCOCCOCCn1cc(CCOc2ccc(CO[C@]3(C(=O)O)C[C@H](O)[C@@H](NC(N)=O)[C@H]([C@H](O)[C@H](O)CNC(=O)Cc4ccc(Cl)cc4)O3)cc2)nn1` [Compound 222, (2R,4S,5R,6R)-6-((1R,2R)-3-(2-(4-chlorophenyl)acetamido)-1,2-dihydroxypropyl)-4-hydroxy-2-((4-(2-(1-(12-oxo-3,6,9-trioxa-13-azahexadecyl)-1H-1,2,3-triazol-4-yl)ethoxy)benzyl)oxy)-5-ureidotetrahydro-2H-pyran-2-carboxylic acid], the Kd (in experiment [1]; in experiment [2]; on cynomolgus Siglec-2/CD22) was less than 1000 nM each time.

For the compound `C#CCOCCCCCCO[C@]1(C(=O)O)C[C@H](O)[C@@H](NC(=O)C(N)=O)[C@H]([C@H](O)[C@H](O)CNC(=O)Cc2ccc(Cl)cc2)O1` [Compound 223, (2R,4S,5R,6R)-5-(2-amino-2-oxoacetamido)-6-((1R,2R)-3-(2-(4-chlorophenyl)acetamido)-1,2-dihydroxypropyl)-4-hydroxy-2-((6-(prop-2-yn-1-yloxy)hexyl)oxy)tetrahydro-2H-pyran-2-carboxylic acid], the Kd is less than 1000 nM in experiment [1], 1000 to 10000 nM in experiment [2] and 1000 to 10000 nM at cynomolgus Siglec-2/CD22.

Take `C#CCNc1c(NCCCCCCO[C@]2(C(=O)O)C[C@H](O)[C@@H](NC(N)=O)[C@H]([C@H](O)[C@H](O)CNC(=O)Cc3ccc(-c4ccccc4)cc3)O2)c(=O)c1=O` [Compound 224, (2R,4S,5R,6R)-6-((1R,2R)-3-(2-([1,1′-biphenyl]-4-yl)acetamido)-1,2-dihydroxypropyl)-2-((6-((3,4-dioxo-2-(prop-2-yn-1-ylamino)cyclobut-1-en-1-yl)amino)hexyl)oxy)-4-hydroxy-5-ureidotetrahydro-2H-pyran-2-carboxylic acid]: the Kd (in experiment [1]; in experiment [2]; at cynomolgus Siglec-2/CD22) was less than 1000 nM throughout.

As for `C#CCOCCOCCO[C@]1(C(=O)O)C[C@H](O)[C@@H](NS(=O)(=O)NC)[C@H]([C@H](O)[C@H](O)CNC(=O)Cc2ccc(-c3ccc(O)cc3)cc2)O1` [Compound 225, (2R,4S,5R,6R)-6-((1R,2R)-1,2-dihydroxy-3-(2-(4′-hydroxy-[1,1′-biphenyl]-4-yl)acetamido)propyl)-4-hydroxy-5-((N-methylsulfamoyl)amino)-2-(2-(2-(prop-2-yn-1-yloxy)ethoxy)ethoxy)tetrahydro-2H-pyran-2-carboxylic acid], the Kd (in experiment [1]; in experiment [2]; at cynomolgus Siglec-2/CD22) was greater than 10000 nM throughout.

`C#CCNC(=O)CCOCCOCCO[C@]1(c2nn[nH]n2)C[C@H](O)[C@@H](NC(=O)CO)[C@H]([C@H](O)[C@H](O)CNC(=O)Cc2ccc(Cl)cc2)O1` [Compound 226, 3-(2-(2-(((2R,4S,5R,6R)-6-((1R,2R)-3-(2-(4-chlorophenyl)acetamido)-1,2-dihydroxypropyl)-4-hydroxy-5-(2-hydroxyacetamido)-2-(2H-tetrazol-5-yl)tetrahydro-2H-pyran-2-yl)oxy)ethoxy)ethoxy)-N-(prop-2-yn-1-yl)propanamide]: the Kd (in experiment [1]; in experiment [2]; on cynomolgus Siglec-2/CD22) was greater than 10000 nM in each case.

As to `C#CCOCCOCCNc1c(NCCCCCCO[C@]2(C(=O)O)C[C@H](O)[C@@H](NC(=O)CO)[C@H]([C@H](O)[C@H](O)CNC(=O)c3cccc(Cl)c3)O2)c(=O)c1=O` [Compound 227, (2R,4S,5R,6R)-6-((1R,2R)-3-(3-chlorobenzamido)-1,2-dihydroxypropyl)-2-((6-((3,4-dioxo-2-((2-(2-(prop-2-yn-1-yloxy)ethoxy)ethyl)amino)cyclobut-1-en-1-yl)amino)hexyl)oxy)-4-hydroxy-5-(2-hydroxyacetamido)tetrahydro-2H-pyran-2-carboxylic acid], the figures for the Kd (in experiment [1]; in experiment [2]; on cynomolgus Siglec-2/CD22) were less than 1000 nM, 1000 to 10000 nM and less than 1000 nM, respectively.

`CC(=O)NCCOCCOCCOCCOCCNC(=O)CCCCCO[C@]1(C(=O)O)C[C@H](O)[C@@H](NC(=O)CO)[C@H]([C@H](O)[C@H](O)CNC(=O)Cc2ccc(Cl)cc2)O1` [Compound 228, (2R,4S,5R,6R)-6-((1R,2R)-3-(2-(4-chlorophenyl)acetamido)-1,2-dihydroxypropyl)-2-((2,19-dioxo-6,9,12,15-tetraoxa-3,18-diazatetracosan-24-yl)oxy)-4-hydroxy-5-(2-hydroxyacetamido)tetrahydro-2H-pyran-2-carboxylic acid]: the Kd in experiment [1] is 1000 to 10000 nM; in experiment [2], 1000 to 10000 nM; on cynomolgus Siglec-2/CD22, less than 1000 nM.

In the case of `C#CCOCCOCCNc1c(NCCCCCCO[C@]2(C(=O)O)C[C@H](O)[C@@H](NC(=O)CO)[C@H]([C@H](O)[C@H](O)CNC(=O)c3ccc(C(F)F)cc3)O2)c(=O)c1=O` [Compound 231, (2R,4S,5R,6R)-6-((1R,2R)-3-(4-(difluoromethyl)benzamido)-1,2-dihydroxypropyl)-2-((6-((3,4-dioxo-2-((2-(2-(prop-2-yn-1-yloxy)ethoxy)ethyl)amino)cyclobut-1-en-1-yl)amino)hexyl)oxy)-4-hydroxy-5-(2-hydroxyacetamido)tetrahydro-2H-pyran-2-carboxylic acid], the values for the Kd (in experiment [1]; in experiment [2]; on cynomolgus Siglec-2/CD22) were less than 1000 nM, 1000 to 10000 nM and less than 1000 nM, respectively.

As for `C#CCOCCOCCNc1c(NCCCCCCO[C@]2(C(=O)O)C[C@H](O)[C@@H](NC(=O)CO)[C@H]([C@H](O)[C@H](O)CNC(=O)c3ccc(F)cc3)O2)c(=O)c1=O` [Compound 232, (2R,4S,5R,6R)-2-((6-((3,4-dioxo-2-((2-(2-(prop-2-yn-1-yloxy)ethoxy)ethyl)amino)cyclobut-1-en-1-yl)amino)hexyl)oxy)-6-((1R,2R)-3-(4-fluorobenzamido)-1,2-dihydroxypropyl)-4-hydroxy-5-(2-hydroxyacetamido)tetrahydro-2H-pyran-2-carboxylic acid], the values for the Kd (in experiment [1]; in experiment [2]; on cynomolgus Siglec-2/CD22) were 1000 to 10000 nM, greater than 10000 nM and 1000 to 10000 nM, respectively.
